Measured values taken from patent EP4755888A1 (ILAb Co., Ltd., priority 2023, dated 2025).

What follows are compounds tested against PD-1/PD-L1 (Homo sapiens, UniProt Q9NZQ7) (assay: TR-FRET PD-1/PD-L1 binding inhibition at the molecular level (free proteins)). Conditions: Tag1-PD-L1 and Tag2-PD-1 proteins, twelve concentrations from 200 nM, 2 hours at room temperature, read-out: FRET assay (IC50).
Protocol: In order to evaluate the inhibitory activity of the compounds synthesized according to the above Preparation Examples against PD-1/PD-L1 molecules in a free protein state,a TR-FRET (Time-Resolved Fluorescence Energy Transfer) experimetn was performed as described below.
Specifically, the compounds were prepared in a 96-well plate by serial dilution starting from 200 nM with 1/2 dilutions to obtain a total of twelve concentrations, and 2 µL of each compound solution was added to a 384-well plate. Thereafter, Tag1-PD-L1 protein and Tag2-PD-1 protein were each prepared at a 1x concentration, mixed at a ratio of 1:1, and 8 µL of the mixed solution was added to each well of the 384-well plate containing the compounds. Anti-Tag1 Eu Cryptate reagent and Anti-Tag2 XL665 antibody were each prepared at a 1* concentration, mixed at a ratio of 1:1, and 10 µL of the mixed solution was added to each well of the 384-well plate containing the compounds and proteins, followed by incubation at room temperature for 2 hours. Upon completion of the reaction, fluorescence signals at wavelengths of 620 nm and 665 nm were measured using a microplate reader.

Sequence of PD-1/PD-L1 (Q9NZQ7 19-238 limits assumed): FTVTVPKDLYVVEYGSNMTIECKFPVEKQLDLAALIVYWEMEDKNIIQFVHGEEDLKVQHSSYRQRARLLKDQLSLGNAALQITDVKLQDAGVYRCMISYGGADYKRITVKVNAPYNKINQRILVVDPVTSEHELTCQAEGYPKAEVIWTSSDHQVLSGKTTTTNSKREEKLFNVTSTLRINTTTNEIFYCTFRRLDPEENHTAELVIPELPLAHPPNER

Q: For `Cc1c(NC(=O)c2cc3n(n2)CCCC3NC[C@@H]2CCC(=O)N2)cccc1-c1cccc(Nc2nccc3cc(CN4CC[C@@H](O)C4)cnc23)c1C` (stereo partly drawn) [Compound 15, N-(3'-((3-(((R)-3-hydroxypyrrolidin-1-yl)methyl)-1,7-naphthyridin-8-yl)amino)-2,2'-dimethyl-[1,1'-biphenyl]-3-yl)-4-((((S)-5-oxopyrrolidin-2-yl)methyl)amino)-4,5,6,7-tetrahydropyrazolo[1,5-a]pyridine-2-carboxamide], which IC50 is on record?
A: The IC50 was < 0.01 µM.

Q: `Cc1c(NC(=O)c2cc3n(n2)CCCC3NCC(=O)O)cccc1-c1cccc(Nc2nccc3cc(CN4CC[C@@H](O)C4)cnc23)c1C` (stereo partly drawn) [Compound 16, 2-((2-((3'-((3-(((R)-3-hydroxypyrrolidin-1-yl)methyl)-1,7-naphthyridin-8-yl)amino)-2,2'-dimethyl-[1,1'-biphenyl]-3-yl)carbamoyl)-4,5,6,7-tetrahydropyrazolo[1,5-a]pyridin-4-yl)amino)acetic acid] was tested. Which IC50 did it give?
A: The IC50 was < 0.01 µM.

Q: How did the IC50 turn out when `Cc1c(NC(=O)c2cc3c(NC(C)(C)C(=O)O)cccn3n2)cccc1-c1cccc(Nc2nccc3cc(CN4CC[C@@H](O)C4)cnc23)c1C` [Compound 17, (R)-2-((2-((3'-((3-((3-hydroxypyrrolidin-1-yl)methyl)-1,7-naphthyridin-8-yl)amino)-2,2'-dimethyl-[1,1'-biphenyl]-3-yl)carbamoyl)pyrazolo[1,5-a]pyridin-4-yl)amino)-2-methylpropanoic acid] was run?
A: The IC50 was < 0.01 µM.

Q: For `O=C(Nc1cccc(-c2cccc(Nc3nccc4cc(CN5CC[C@@H](O)C5)cnc34)c2Cl)c1Cl)c1cc2n(n1)CCCC2O` (stereo partly drawn) [Compound 18, N-(2,2'-dichloro-3'-((3-(((R)-3-hydroxypyrrolidin-1-yl)methyl)-1,7-naphthyridin-8-yl)amino)-[1,1'-biphenyl]-3-yl)-4-hydroxy-4,5,6,7-tetrahydropyrazolo[1,5-a]pyridine-2-carboxamide], which IC50 is on record?
A: The IC50 was 0.01 to 0.1 µM.

Q: For `CC(=O)NCCNC1CCCn2nc(C(=O)Nc3cccc(-c4cccc(Nc5nccc6cc(CN7CC[C@@H](O)C7)cnc56)c4Cl)c3Cl)cc21` (stereo partly drawn) [Compound 19, 4-((2-acetamidoethyl)amino)-N-(2,2'-dichloro-3'-((3-(((R)-3-hydroxypyrrolidin-1-yl)methyl)-1,7-naphthyridin-8-yl)amino)-[1,1'-biphenyl]-3-yl)-4,5,6,7-tetrahydropyrazolo[1,5-a]pyridine-2-carboxamide], which IC50 is on record?
A: Its IC50 is 0.01 to 0.1 µM.

Q: With `O=C(Nc1cccc(-c2cccc(Nc3nccc4cc(CN5CC[C@@H](O)C5)cnc34)c2Cl)c1Cl)c1cc2n(n1)CCCC2NCCO` (stereo partly drawn) [Compound 20, N-(2,2'-dichloro-3'-((3-(((R)-3-hydroxypyrrolidin-1-yl)methyl)-1,7-naphthyridin-8-yl)amino)-[1,1'-biphenyl]-3-yl)-4-((2-hydroxyethyl)amino)-4,5,6,7-tetrahydropyrazolo[1,5-a]pyridine-2-carboxamide] as the compound, how does the IC50 read?
A: The IC50 was 0.01 to 0.1 µM.

Q: `O=C1CC[C@@H](CNC2CCCn3nc(C(=O)Nc4cccc(-c5cccc(Nc6nccc7cc(CN8CC[C@@H](O)C8)cnc67)c5Cl)c4Cl)cc32)N1` (stereo partly drawn) [Compound 21, N-(2,2'-dichloro-3'-((3-(((R)-3-hydroxypyrrolidin-1-yl)methyl)-1,7-naphthyridin-8-yl)amino)-[1,1'-biphenyl]-3-yl)-4-((((S)-5-oxopyrrolidin-2-yl)methyl)amino)-4,5,6,7-tetrahydropyrazolo[1,5-a]pyridine-2-carboxamide] was tested. Which IC50 did it give?
A: The IC50 was 0.01 to 0.1 µM.

Q: How did the IC50 turn out when `O=C(Nc1cccc(-c2cccc(Nc3nccc4cc(CN5CC[C@@H](O)C5)cnc34)c2Cl)c1Cl)c1cc2n(n1)CCCC2N1CC[C@@H](C(=O)O)C1` (stereo partly drawn) [Compound 22, (3R)-1-(2-((2,2'-dichloro-3'-((3-(((R)-3-hydroxypyrrolidin-1-yl)methyl)-1,7-naphthyridin-8-yl)amino)-[1,1'-biphenyl]-3-yl)carbamoyl)-4,5,6,7-tetrahydropyrazolo[1,5-a]pyridin-4-yl)pyrrolidine-3-carboxylic acid] was run?
A: Its IC50 is < 0.01 µM.

Q: For `O=C(Nc1cccc(-c2cccc(Nc3nccc4cc(CN5CC[C@@H](O)C5)cnc34)c2Cl)c1Cl)c1cc2n(n1)CCCC2N1CCC(O)CC1` (stereo partly drawn) [Compound 23, N-(2,2'-dichloro-3'-((3-(((R)-3-hydroxypyrrolidin-1-yl)methyl)-1,7-naphthyridin-8-yl)amino)-[1,1'-biphenyl]-3-yl)-4-(4-hydroxypiperidin-1-yl)-4,5,6,7-tetrahydropyrazolo[1,5-a]pyridine-2-carboxamide], which IC50 is on record?
A: Its IC50 is 0.01 to 0.1 µM.

Q: How did the IC50 turn out when `O=C(Nc1cccc(-c2cccc(Nc3nccc4cc(CN5CC[C@@H](O)C5)cnc34)c2Cl)c1Cl)c1cc2n(n1)CCCC2N1CCC(C(=O)O)CC1` (stereo partly drawn) [Compound 24, 1-(2-((2,2'-dichloro-3'-((3-(((R)-3-hydroxypyrrolidin-1-yl)methyl)-1,7-naphthyridin-8-yl)amino)-[1,1'-biphenyl]-3-yl)carbamoyl)-4,5,6,7-tetrahydropyrazolo[1,5-a]pyridin-4-yl)piperidine-4-carboxylic acid] was run?
A: The IC50 was 0.01 to 0.1 µM.

Q: For `O=C(Nc1cccc(-c2cccc(Nc3nccc4cc(CN5CC[C@@H](O)C5)cnc34)c2Cl)c1Cl)c1cc2n(n1)CCCC2N1CC[C@@H](O)C1` (stereo partly drawn) [Compound 25, N-(2,2'-dichloro-3'-((3-(((R)-3-hydroxypyrrolidin-1-yl)methyl)-1,7-naphthyridin-8-yl)amino)-[1,1'-biphenyl]-3-yl)-4-((R)-3-hydroxypyrrolidin-1-yl)-4,5,6,7-tetrahydropyrazolo[1,5-a]pyridine-2-carboxamide], which IC50 is on record?
A: The IC50 was 0.01 to 0.1 µM.

Q: How did the IC50 turn out when `O=C(O)CNC1CCCn2nc(C(=O)Nc3cccc(-c4cccc(Nc5nccc6cc(CN7CC[C@@H](O)C7)cnc56)c4Cl)c3Cl)cc21` (stereo partly drawn) [Compound 26, 2-((2-((2,2'-dichloro-3'-((3-(((R)-3-hydroxypyrrolidin-1-yl)methyl)-1,7-naphthyridin-8-yl)amino)-[1,1'-biphenyl]-3-yl)carbamoyl)-4,5,6,7-tetrahydropyrazolo[1,5-a]pyridin-4-yl)amino)acetic acid] was run?
A: The IC50 was < 0.01 µM.

Q: How did the IC50 turn out when `CC(C)(NC1CCCn2nc(C(=O)Nc3cccc(-c4cccc(Nc5nccc6cc(CN7CC[C@@H](O)C7)cnc56)c4Cl)c3Cl)cc21)C(=O)O` (stereo partly drawn) [Compound 27, 2-((2-((2,2'-dichloro-3'-((3-(((R)-3-hydroxypyrrolidin-1-yl)methyl)-1,7-naphthyridin-8-yl)amino)-[1,1'-biphenyl]-3-yl)carbamoyl)-4,5,6,7-tetrahydropyrazolo[1,5-a]pyridin-4-yl)amino)-2-methylpropanoic acid] was run?
A: The IC50 was 0.01 to 0.1 µM.

Q: Which IC50 does the source give for `Cc1c(Nc2nccc3cc(CN4CC[C@@H](O)C4)cnc23)cccc1-c1cccc(NC(=O)c2cc3n(n2)CCCC3NCCO)c1Cl` (stereo partly drawn) [Compound 28, N-(2-chloro-3'-((3-(((R)-3-hydroxypyrrolidin-1-yl)methyl)-1,7-naphthyridin-8-yl)amino)-2'-methyl-[1,1'-biphenyl]-3-yl)-4-((2-hydroxyethyl)amino)-4,5,6,7-tetrahydropyrazolo[1,5-a]pyridine-2-carboxamide] here?
A: Its IC50 is < 0.01 µM.

Q: Which IC50 does the source give for `Cc1c(Nc2nccc3cc(CN4CC[C@@H](O)C4)cnc23)cccc1-c1cccc(NC(=O)c2cc3n(n2)CCCC3N2CC[C@@H](O)C2)c1Cl` (stereo partly drawn) [Compound 29, N-(2-chloro-3'-((3-(((R)-3-hydroxypyrrolidin-1-yl)methyl)-1,7-naphthyridin-8-yl)amino)-2'-methyl-[1,1'-biphenyl]-3-yl)-4-((R)-3-hydroxypyrrolidin-1-yl)-4,5,6,7-tetrahydropyrazolo[1,5-a]pyridine-2-carboxamide] here?
A: Its IC50 is < 0.01 µM.

Q: With `CC(=O)NCCNC1CCCn2nc(C(=O)Nc3cccc(-c4cccc(Nc5nccc6cc(CN7CC[C@@H](O)C7)cnc56)c4C)c3Cl)cc21` (stereo partly drawn) [Compound 30, 4-((2-acetamidoethyl)amino)-N-(2-chloro-3'-((3-(((R)-3-hydroxypyrrolidin-1-yl)methyl)-1,7-naphthyridin-8-yl)amino)-2'-methyl-[1,1'-biphenyl]-3-yl)-4,5,6,7-tetrahydropyrazolo[1,5-a]pyridine-2-carboxamide] as the compound, how does the IC50 read?
A: The IC50 was < 0.01 µM.

Q: With `Cc1c(Nc2nccc3cc(CN4CC[C@@H](O)C4)cnc23)cccc1-c1cccc(NC(=O)c2cc3n(n2)CCCC3NC[C@@H]2CCC(=O)N2)c1Cl` (stereo partly drawn) [Compound 31, N-(2-chloro-3'-((3-(((R)-3-hydroxypyrrolidin-1-yl)methyl)-1,7-naphthyridin-8-yl)amino)-2'-methyl-[1,1'-biphenyl]-3-yl)-4-((((S)-5-oxopyrrolidin-2-yl)methyl)amino)-4,5,6,7-tetrahydropyrazolo[1,5-a]pyridine-2-carboxamide] as the compound, how does the IC50 read?
A: Its IC50 is < 0.01 µM.

Q: For `Cc1c(Nc2nccc3cc(CN4CC[C@@H](O)C4)cnc23)cccc1-c1cccc(NC(=O)c2cc3n(n2)CCCC3NCC(=O)O)c1Cl` (stereo partly drawn) [Compound 32, 2-((2-((2-chloro-3'-((3-(((R)-3-hydroxypyrrolidin-1-yl)methyl)-1,7-naphthyridin-8-yl)amino)-2'-methyl-[1,1'-biphenyl]-3-yl)carbamoyl)-4,5,6,7-tetrahydropyrazolo[1,5-a]pyridin-4-yl)amino)acetic acid], which IC50 is on record?
A: The IC50 was < 0.01 µM.

Q: Which IC50 does the source give for `Cc1c(Nc2nccc3cc(CN4CC[C@@H](O)C4)cnc23)cccc1-c1cccc(NC(=O)c2cc3n(n2)CCCC3N2CC[C@@H](C(=O)O)C2)c1Cl` (stereo partly drawn) [Compound 33, (3R)-1-(2-((2-chloro-3'-((3-(((R)-3-hydroxypyrrolidin-1-yl)methyl)-1,7-naphthyridin-8-yl)amino)-2'-methyl-[1,1'-biphenyl]-3-yl)carbamoyl)-4,5,6,7-tetrahydropyrazolo[1,5-a]pyridin-4-yl)pyrrolidine-3-carboxylic acid] here?
A: Its IC50 is < 0.01 µM.
